Data as given in patent US5219884A, “Immunosuppressant” (Taito Co., Ltd., priority 1990, dated 1993).
Like-named read-outs stand apart in the source and are kept apart here.

Assays:
[1] = system: IL2-dependent mouse cell line CTLL-2; experiment: suppression of IL-2 induced 3H-thymidine incorporation of CTLL-2; format: cell-based; settings: 72 hrs, second run (control 30168 cpm)
Experimental: IL2-dependent mouse cell line CTLL-2 cells were suspended in the RPMI1640 culture medium supplemented with 30% FCS to a concentration of 2×10^5 cells/ml. The suspension (50 μl) and 50 μl of concanavalin A-stimulated rat spleen cell culture supernatants containing IL2 were added to each well of 96-well microculture plates in which 100 μl of the test substance had been placed. After culturing at 37° C. in an atmosphere of 5% carbon dioxide for 20, 44, or 68 hours, 0.5 μCi/well of ^3 H-thymidine was added, and cultured for 4 hours under the same conditions. After termination of the culture, the cells were harvested by a cell harvester, and the radioactivity incorporated into the cells was measured by a liquid scintillation counter.

HL60 = experiment: in vitro; format: cell-based, human
Experimental: (§1) Cytotoxicity to human tumor cell lines was examined as follows:
(§2) Cells of human cell lines, K562, MOLT4, U937, HL60, KATOIII, KB, PC-6, PC-14 and CCRF-CEM were separately suspended to the concentration of 2×10^5 cells/ml in the RPMI1640 culture medium supplemented with 20% FCS. Fifty μl of this suspension was added to each well of 96-well microculture plates to which 50 μl of the test solution had been added. After culturing at 37° C. in an atmosphere of 5% carbon dioxide for 72 hours, the absorbancy at 550 nm was measured in the same way as the colorimetry using MTT in Experimental Example 1, and the percent suppression was calculated in the same manner as in Experimental Example 14, which was used as the index of cytotoxicity.

PC-14 = experiment: in vitro; format: cell-based, human
Experimental: as §1, §2

KB = experiment: in vitro; format: cell-based, human
Experimental: as §1, §2

in vitro = format: cell-based, human; settings: human, read-out: Suppression
Experimental: as §1, §2

U937 = experiment: in vitro; format: cell-based, human
Experimental: as §1, §2

K562 = experiment: in vitro; format: cell-based, human
Experimental: as §1, §2

CCRF-CEM = experiment: in vitro; format: cell-based, human
Experimental: as §1, §2

[2] = cytotoxicity to mouse L929 cells; format: cell-based; settings: mouse, l929 cells, read-out: Suppression
Experimental: (§3) Cytotoxicity to mouse L929 cells was assayed as follows:
(§4) L929 cells were suspended to the concentration of 1.5×10^5 cells/ml in the F12 culture medium supplemented with 10% FCS. One hundred μl of the suspension was added to each well of 96-well microculture plates, and cultured at 37° C. in an atmosphere of 5% carbon dioxide for 24 hours, to which 100 μl of the test solution was added and cultured for further 48 hours. After the culture, 100 μl of the supernatant was removed and the absorbancy at 550 nm was measured in the same way as the colormetry using MTT in Experimental Example 1. The percent suppression was calculated by the following formula used as the index of cytotoxicity. [formula]

mouse L929 cells = experiment: cytotoxicity to mouse L929 cells; format: cell-based; settings: 550 nm
Experimental: as §3, §4

[3] = cytotoxicity to tumor cell line MOLT4; format: cell-based, human; settings: human, molt4 cells, read-out: Suppression
Experimental: as §1, §2

MOLT4 = experiment: cytotoxicity to tumor cell line MOLT4; format: cell-based, human
Experimental: as §1, §2

Question: Which 3H-thymidine uptake ([1]; 0.1 μg/ml) does the source give for `CCCCCCC(O)CCCCCCCCCC(O)C(O)C(N)(CO)C(=O)O` (stereo not shown) [Example 9] here?
Answer: The 3H-thymidine uptake was 33835 cpm.

Question: What about the 3H-thymidine uptake ([1]; 1 μg/ml) of the same molecule?
Answer: Its 3H-thymidine uptake is 2247 cpm.

Question: What about the inhibition at 0.1 µg/mL ([1]; Mus musculus, CTLL-2, 0.1 μg/ml, read-out: Suppression) of the same molecule?
Answer: The inhibition at 0.1 µg/mL was 0%.

Question: And the inhibition at 1 µg/mL ([1]; Mus musculus, CTLL-2, 1 μg/ml)?
Answer: The inhibition at 1 µg/mL was 92.7%.

Question: What about the Absorbancy (HL60; 0.1 μg/ml) of the same molecule?
Answer: The Absorbancy was 0.450.

Question: What about the Absorbancy (HL60; 1.0 μg/ml) of the same molecule?
Answer: Its Absorbancy is 0.435.

Question: And the Absorbancy (HL60; 10.0 μg/ml)?
Answer: Its Absorbancy is 0.413.

Question: What about the Absorbancy (PC-14; 0.1 μg/ml) of the same molecule?
Answer: Its Absorbancy is 0.404.

Question: And the Absorbancy (PC-14; 1.0 μg/ml)?
Answer: Its Absorbancy is 0.441.

Question: What about the Absorbancy (PC-14; 10.0 μg/ml) of the same molecule?
Answer: Its Absorbancy is 0.374.

Question: What about the Absorbancy (KB; 0.1 μg/ml) of the same molecule?
Answer: The Absorbancy was 0.778.

Question: And the Absorbancy (KB; 1.0 μg/ml)?
Answer: The Absorbancy was 0.762.

Question: And the Absorbancy (KB; 10.0 μg/ml)?
Answer: Its Absorbancy is 0.696.

Question: What about the cytotoxicity at 72 h (in vitro; ccrf-cem cells, 0.1 μg/ml) of the same molecule?
Answer: Its cytotoxicity at 72 h is 0%.

Question: What about the cytotoxicity at 72 h (in vitro; ccrf-cem cells, 1.0 μg/ml) of the same molecule?
Answer: Its cytotoxicity at 72 h is 0%.

Question: What about the cytotoxicity at 72 h (in vitro; ccrf-cem cells, 10.0 μg/ml) of the same molecule?
Answer: The cytotoxicity at 72 h was 1.7%.

Question: What about the cytotoxicity at 72 h (in vitro; hl60 cells, 0.1 μg/ml) of the same molecule?
Answer: Its cytotoxicity at 72 h is 13.8%.

Question: And the cytotoxicity at 72 h (in vitro; hl60 cells, 1.0 μg/ml)?
Answer: Its cytotoxicity at 72 h is 16.7%.

Question: What about the cytotoxicity at 72 h (in vitro; hl60 cells, 10.0 μg/ml) of the same molecule?
Answer: The cytotoxicity at 72 h was 20.9%.

Question: And the cytotoxicity at 72 h (in vitro; k562 cells, 0.1 μg/ml)?
Answer: Its cytotoxicity at 72 h is 1.8%.

Question: What about the cytotoxicity at 72 h (in vitro; k562 cells, 1.0 μg/ml) of the same molecule?
Answer: The cytotoxicity at 72 h was 5.5%.

Question: And the cytotoxicity at 72 h (in vitro; k562 cells, 10.0 μg/ml)?
Answer: Its cytotoxicity at 72 h is 17.7%.

Question: What about the cytotoxicity at 72 h (in vitro; kb cells, 0.1 μg/ml) of the same molecule?
Answer: The cytotoxicity at 72 h was 0%.

Question: And the cytotoxicity at 72 h (in vitro; kb cells, 1.0 μg/ml)?
Answer: The cytotoxicity at 72 h was 0%.

Question: What about the cytotoxicity at 72 h (in vitro; kb cells, 10.0 μg/ml) of the same molecule?
Answer: The cytotoxicity at 72 h was 4.7%.

Question: And the cytotoxicity at 72 h (in vitro; pc-14 cells, 0.1 μg/ml)?
Answer: The cytotoxicity at 72 h was 14.8%.

Question: What about the cytotoxicity at 72 h (in vitro; pc-14 cells, 1.0 μg/ml) of the same molecule?
Answer: The cytotoxicity at 72 h was 7%.

Question: And the cytotoxicity at 72 h (in vitro; pc-14 cells, 10.0 μg/ml)?
Answer: Its cytotoxicity at 72 h is 21.1%.

Question: And the cytotoxicity at 72 h (in vitro; u937 cells, 0.1 μg/ml)?
Answer: The cytotoxicity at 72 h was 0%.

Question: And the cytotoxicity at 72 h (in vitro; u937 cells, 1.0 μg/ml)?
Answer: Its cytotoxicity at 72 h is 0%.

Question: And the cytotoxicity at 72 h (in vitro; u937 cells, 10.0 μg/ml)?
Answer: Its cytotoxicity at 72 h is 0%.

Question: What about the Absorbancy (U937; 0.1 μg/ml) of the same molecule?
Answer: Its Absorbancy is 0.640.

Question: What about the Absorbancy (U937; 1.0 μg/ml) of the same molecule?
Answer: The Absorbancy was 0.592.

Question: What about the Absorbancy (U937; 10.0 μg/ml) of the same molecule?
Answer: The Absorbancy was 0.584.

Question: What about the Absorbancy (K562; 0.1 μg/ml) of the same molecule?
Answer: Its Absorbancy is 0.378.

Question: What about the Absorbancy (K562; 1.0 μg/ml) of the same molecule?
Answer: Its Absorbancy is 0.364.

Question: What about the Absorbancy (K562; 10.0 μg/ml) of the same molecule?
Answer: Its Absorbancy is 0.317.

Question: And the Absorbancy (CCRF-CEM; 0.1 μg/ml)?
Answer: Its Absorbancy is 0.702.

Question: What about the Absorbancy (CCRF-CEM; 1.0 μg/ml) of the same molecule?
Answer: The Absorbancy was 0.696.

Question: And the Absorbancy (CCRF-CEM; 10.0 μg/ml)?
Answer: Its Absorbancy is 0.680.

Question: And the cytotoxicity at 48 h ([2]; 1 μg/ml)?
Answer: Its cytotoxicity at 48 h is 0%.

Question: And the cytotoxicity at 48 h ([2]; 10 μg/ml)?
Answer: Its cytotoxicity at 48 h is 0%.

Question: And the cytotoxicity at 48 h ([2]; 100 μg/ml)?
Answer: The cytotoxicity at 48 h was 1%.

Question: And the Absorbancy (mouse L929 cells; 1 μg/ml)?
Answer: The Absorbancy was 0.749.

Question: And the Absorbancy (mouse L929 cells; 10 μg/ml)?
Answer: The Absorbancy was 0.747.

Question: And the Absorbancy (mouse L929 cells; 100 μg/ml)?
Answer: Its Absorbancy is 0.567.

Question: What about the cytotoxicity at 72 h ([3]; 0.1 μg/ml) of the same molecule?
Answer: The cytotoxicity at 72 h was 23.4%.

Question: And the cytotoxicity at 72 h ([3]; 1.0 μg/ml)?
Answer: Its cytotoxicity at 72 h is 9%.

Question: And the cytotoxicity at 72 h ([3]; 10.0 μg/ml)?
Answer: The cytotoxicity at 72 h was 2.1%.

Question: What about the Absorbancy (MOLT4; 0.1 μg/ml) of the same molecule?
Answer: Its Absorbancy is 0.111.

Question: And the Absorbancy (MOLT4; 1.0 μg/ml)?
Answer: The Absorbancy was 0.132.

Question: And the Absorbancy (MOLT4; 10.0 μg/ml)?
Answer: Its Absorbancy is 0.142.
